Test results taken from PubChem BioAssay AID248 (DTP/NCI, 2004).
“And” between values parts separate entries of the source, which are not always exact repeats. Identical values can stand only once. Inconclusive results and toxic doses are left out. Rule as the data show it: active = T/C of 150% or more; inactive = T/C below 125%.

Test system: L1210 leukemia ip in BDF1 mice, survival T/C
Experiment: NCI In Vivo Anticancer Drug Screen. Data for tumor model L1210 Leukemia (intraperitoneal) in B6D2F1 (BDF1) mice
Conditions: endpoint: mean survival time, higher = longer survival
How it was run: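 Value reflects the ratio of survival in compound-treated mice to survival in vehicle-treated controls, with both groups carrying the same transplanted tumor.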

[1] = dose: 100.0 mg/kg/injection, schedule: Q04DX003 (ip), vehicle: saline with Tween-80
[2] = dose: 200.0 mg/kg/injection, schedule: Q04DX003 (ip), vehicle: saline with Tween-80
[3] = dose: 400.0 mg/kg/injection, schedule: Q04DX003 (ip), vehicle: saline with Tween-80
[4] = dose: 100.0 mg/kg/injection, schedule: Q01DX001 (ip), vehicle: carboxymethylcellulose (CMC)
[5] = dose: 100.0 mg/kg/injection, schedule: Q01DX009 (ip), vehicle: Klucel (hydroxypropylcellulose) (HPC)
[6] = dose: 100.0 mg/kg/injection, schedule: Q04DX002 (ip), vehicle: Klucel (hydroxypropylcellulose) (HPC)
[7] = dose: 200.0 mg/kg/injection, schedule: Q01DX001 (ip), vehicle: carboxymethylcellulose (CMC)
[8] = dose: 200.0 mg/kg/injection, schedule: Q01DX009 (ip), vehicle: Klucel (hydroxypropylcellulose) (HPC)
[9] = dose: 200.0 mg/kg/injection, schedule: Q04DX002 (ip), vehicle: Klucel (hydroxypropylcellulose) (HPC)
[10] = dose: 400.0 mg/kg/injection, schedule: Q01DX001 (ip), vehicle: carboxymethylcellulose (CMC)
[11] = dose: 100.0 mg/kg/injection, schedule: Q01DX009 (ip), vehicle: saline
[12] = dose: 100.0 mg/kg/injection, schedule: Q04DX003 (ip), vehicle: saline
[13] = dose: 200.0 mg/kg/injection, schedule: Q01DX009 (ip), vehicle: saline
[14] = dose: 200.0 mg/kg/injection, schedule: Q04DX003 (ip), vehicle: saline
[15] = dose: 100.0 mg/kg/injection, schedule: Q01DX009 (ip), vehicle: saline with Tween-80
[16] = dose: 200.0 mg/kg/injection, schedule: Q01DX009 (ip), vehicle: saline with Tween-80
[17] = dose: 100.0 mg/kg/injection, schedule: Q04DX003 (ip), vehicle: Klucel (hydroxypropylcellulose) (HPC)
[18] = dose: 200.0 mg/kg/injection, schedule: Q04DX003 (ip), vehicle: Klucel (hydroxypropylcellulose) (HPC)
[19] = dose: 100.0 mg/kg/injection, schedule: Q01DX001 (ip), vehicle: saline
[20] = dose: 200.0 mg/kg/injection, schedule: Q01DX001 (ip), vehicle: saline
[21] = dose: 400.0 mg/kg/injection, schedule: Q01DX001 (ip), vehicle: saline
[22] = dose: 400.0 mg/kg/injection, schedule: Q01DX009 (ip), vehicle: Klucel (hydroxypropylcellulose) (HPC)
[23] = dose: 400.0 mg/kg/injection, schedule: Q04DX003 (ip), vehicle: Klucel (hydroxypropylcellulose) (HPC)
[24] = dose: 400.0 mg/kg/injection, schedule: Q01DX009 (ip), vehicle: saline
[25] = dose: 400.0 mg/kg/injection, schedule: Q04DX003 (ip), vehicle: saline

Measured: T/C

COSc1ccc([N+](=O)[O-])cc1[N+](=O)[O-]
inactive: [1] 96 % of control | [2] 100 % of control | [3] 103 % of control

CCc1ccc(NC(=O)NCCCl)cc1
inactive: dose: 50.0 mg/kg/injection, schedule: Q01DX009 (ip), vehicle: Klucel (hydroxypropylcellulose) (HPC) 89 % of control | [4] 87 % of control | [5] 89 % of control | [6] 105 % of control | [7] 106 % of control | [8] 92 % of control | [9] 113 % of control | [10] 106 % of control

CCN(C)CCC(CNC(=O)CN(CC)CC)(c1cccc2ccccc12)C(C)C (stereo not drawn)
inactive: dose: 50.0 mg/kg/injection, schedule: Q01DX009 (ip), vehicle: saline 94 % of control | [11] 91 % of control | [12] 103 % of control | [13] 101 % of control | [14] 103 % of control

CNc1nc(Cl)nc2ccccc12
inactive: dose: 50.0 mg/kg/injection, schedule: Q01DX009 (ip), vehicle: saline with Tween-80 105 % of control | [15] 112 % of control | [16] 102 % of control

O=C1c2ccccc2C(=O)N1CCOc1ccc([N+](=O)[O-])cc1Cl
inactive: dose: 50.0 mg/kg/injection, schedule: Q04DX003 (ip), vehicle: Klucel (hydroxypropylcellulose) (HPC) 102 % of control | [17] 101 % of control | [18] 100 % of control

Cc1ncc(Br)c(C(=O)O)n1
inactive: dose: 50.0 mg/kg/injection, schedule: Q01DX001 (ip), vehicle: saline 101 % of control | [19] 98 % of control | [5] 106 % of control | [20] 95 % of control | [8] 113 % of control | [21] 90 % of control | [22] 110 % of control

c1ccc2c(c1)ccc1cc3ccncc3cc12
inactive: [19] 95 % of control and 98 % of control | [20] 100 % of control and 106 % of control | [21] 96 % of control

COc1cc(OC)c(OC)cc1OC
inactive: [15] 95 % of control | [16] 97 % of control

CC(=O)CC(C)(C)NC(=S)NN
inactive: [17] 91 % of control | [18] 101 % of control | [23] 91 % of control

CC(CN(C)N=O)C1CCC2C3CC=C4CC(O)CCC4(C)C3CCC12C (stereo not drawn)
inactive: dose: 100.0 mg/kg/injection, schedule: Q01DX001 (sc), vehicle: steriod suspending solution 96 % of control | dose: 200.0 mg/kg/injection, schedule: Q01DX001 (sc), vehicle: steriod suspending solution 96 % of control | dose: 400.0 mg/kg/injection, schedule: Q01DX001 (sc), vehicle: steriod suspending solution 100 % of control

O=C(c1ccccc1)c1cc2ccccc2oc1=O
inactive: dose: 100.0 mg/kg/injection, schedule: Q01DX001 (ip), vehicle: Klucel (hydroxypropylcellulose) (HPC) 103 % of control | dose: 200.0 mg/kg/injection, schedule: Q01DX001 (ip), vehicle: Klucel (hydroxypropylcellulose) (HPC) 98 % of control | dose: 400.0 mg/kg/injection, schedule: Q01DX001 (ip), vehicle: Klucel (hydroxypropylcellulose) (HPC) 90 % of control

O=[N+]([O-])c1ccc(-c2ccccc2)cc1
inactive: [19] 102 % of control | [20] 105 % of control | [21] 105 % of control

CN(CCC(=O)O)S(=O)(=O)c1ccccc1
inactive: [19] 103 % of control | [20] 97 % of control | [21] 89 % of control

CN1CCC(CN2c3ccccc3Sc3ccccc32)C1 (stereo not drawn)
inactive: dose: 3.12 mg/kg/injection, schedule: Q01DX009 (ip), vehicle: saline 95 % of control | dose: 6.25 mg/kg/injection, schedule: Q01DX009 (ip), vehicle: saline 107 % of control | dose: 12.5 mg/kg/injection, schedule: Q01DX009 (ip), vehicle: saline 101 % of control | dose: 25.0 mg/kg/injection, schedule: Q01DX009 (ip), vehicle: saline 101 % of control

OC(C(c1ccccc1)N1CCCCC1)C(O)(c1ccccc1)c1ccccc1 (stereo not drawn)
inactive: dose: 100.0 mg/kg/injection, schedule: Q01DX001 (ip), vehicle: saline sonified 97 % of control | dose: 200.0 mg/kg/injection, schedule: Q01DX001 (ip), vehicle: saline sonified 108 % of control | dose: 400.0 mg/kg/injection, schedule: Q01DX001 (ip), vehicle: saline sonified 93 % of control

CC1(C)C2C=CC1C(CO)(CO)C2 (stereo not drawn)
inactive: [11] 105 % of control | [12] 103 % of control | [13] 97 % of control | [14] 92 % of control | [24] 100 % of control | [25] 109 % of control

CC1c2[nH]c3ccccc3c2CC1C(=O)O (stereo not drawn)
inactive: dose: 100.0 mg/kg/injection, schedule: Q04DX002 (ip), vehicle: saline with Tween-80 97 % of control | dose: 200.0 mg/kg/injection, schedule: Q04DX002 (ip), vehicle: saline with Tween-80 91 % of control | dose: 400.0 mg/kg/injection, schedule: Q04DX002 (ip), vehicle: saline with Tween-80 100 % of control

COc1ccc(C=NCCc2ccc(OC)c(OC)c2)cc1OC
inactive: [11] 89 % of control | [12] 102 % of control | [13] 98 % of control | [14] 97 % of control | [24] 97 % of control | [25] 105 % of control

OC1C2CCN(CC2)C1CN1CC=C(c2ccccc2)CC1 (stereo not drawn)
inactive: dose: 25.0 mg/kg/injection, schedule: Q04DX003 (ip), vehicle: saline 104 % of control | dose: 50.0 mg/kg/injection, schedule: Q04DX003 (ip), vehicle: saline 101 % of control | [12] 98 % of control

O=C(Nc1ccc(C(c2ccccc2)(c2ccccc2)c2ccccc2)cc1)C(Cl)Cl
inactive: [5] 91 % of control | [17] 96 % of control | [8] 97 % of control | [18] 95 % of control | [22] 97 % of control | [23] 94 % of control

CC(=O)NC1C(OCC(NC(=O)OCc2ccccc2)C(=O)NC(CC(=O)OCc2ccccc2)C(=O)OCc2ccccc2)OC(COC(C)=O)C(OC(C)=O)C1OC(C)=O (stereo not drawn)
inactive: dose: 50.0 mg/kg/injection, schedule: Q04DX002 (ip), vehicle: Klucel (hydroxypropylcellulose) (HPC) 97 % of control | [6] 97 % of control | [9] 87 % of control

CCN(CC)CCNc1nc(N)c(C#N)c(C#N)c1C#N
inactive: [4] 96 % of control | [7] 94 % of control | [10] 96 % of control

O=C(c1cccs1)C1Cc2ccccc2C1=O (stereo not drawn)
inactive: dose: 100.0 mg/kg/injection, schedule: Q01DX009 (ip), vehicle: saline sonified 98 % of control | dose: 100.0 mg/kg/injection, schedule: Q04DX003 (ip), vehicle: saline sonified 94 % of control | dose: 200.0 mg/kg/injection, schedule: Q01DX009 (ip), vehicle: saline sonified 95 % of control | dose: 200.0 mg/kg/injection, schedule: Q04DX003 (ip), vehicle: saline sonified 92 % of control | dose: 400.0 mg/kg/injection, schedule: Q01DX009 (ip), vehicle: saline sonified 101 % of control | dose: 400.0 mg/kg/injection, schedule: Q04DX003 (ip), vehicle: saline sonified 94 % of control

O=c1[nH]nc(S(=O)(=O)NC2CCCCC2)c(=O)[nH]1
inactive: [4] 101 % of control | [7] 95 % of control | [10] 110 % of control

COc1ccc(/C(C#N)=C2C=C/C(=N\O)C(C)=C/2Cl)cc1
inactive: dose: 50.0 mg/kg/injection, schedule: Q01DX001 (ip), vehicle: carboxymethylcellulose (CMC) 109 % of control | [4] 96 % of control | [1] 92 % of control | [7] 93 % of control | [2] 106 % of control | [10] 91 % of control | [3] 97 % of control

CN(C(=O)NCCCl)C1CCCCC1
inactive: dose: 75.0 mg/kg/injection, schedule: Q01DX001 (ip), vehicle: carboxymethylcellulose (CMC) 106 % of control

COc1ccc(C(=O)C(C)CN2CCCCC2)cc1 (stereo not drawn)
inactive: [19] 96 % of control | [20] 107 % of control

Cc1cc2c(c3[nH]c4ccccc4c13)C(=O)c1ccccc1C2=O
inactive: [19] 102 % of control | [20] 95 % of control | [21] 102 % of control
